Holding throughout (format): in vivo
Assay [1] has as its system Alopecurus myosuroides (ALOMY). In words: Pre-emergence herbicidal activity (B1). As to conditions: Test 1a, 1000 g/ha, evaluated after 13 days, 5=total damage to plant, 0=no damage to plant. A digest of the protocol: (§1)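 Glasshouse pre-emergence spray test: compound in acetone/water (50:50), 0.5% Tween 20, applied one day after sowing; plants kept at 24/16 °C day/night, 14 h light, 65% humidity, then scored 0–5 for damage after 13 days.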

In assay [2] the test system is Avena fatua (AVEFA). Nature of the assay: Pre-emergence herbicidal activity (B1). The note with it: Test 1a, 1000 g/ha, evaluated after 13 days, 5=total damage to plant, 0=no damage to plant. A digest of the protocol:
as §1

For assay [3], the system named is Echinochloa crus-galli (ECHCG). Nature of the assay: Pre-emergence herbicidal activity (B1). As to conditions: Test 1a, 1000 g/ha, evaluated after 13 days, 5=total damage to plant, 0=no damage to plant. In short, it runs like this: as §1
For assay [4], the system named is Lolium perenne (LOLPE). Nature of the assay: Pre-emergence herbicidal activity (B1). As to conditions: Test 1a, 1000 g/ha, evaluated after 13 days, 5=total damage to plant, 0=no damage to plant. In short, it runs like this:
as §1

Assay [5] deals with Setaria faberi (SETFA). In words: Pre-emergence herbicidal activity (B1). The note with it: Test 1a, 1000 g/ha, evaluated after 13 days, 5=total damage to plant, 0=no damage to plant. A digest of the protocol:
as §1

The test system of assay [6] is Triticum aestivium (TRZAW). In words: Pre-emergence herbicidal activity (B1). The note with it: Test 1a, 1000 g/ha, evaluated after 13 days, 5=total damage to plant, 0=no damage to plant. A digest of the protocol:
as §1

Assay [7] has as its system Alopecurus myosuroides (ALOMY). In words: Post-emergence herbicidal activity (B2). The note with it: Test B2a, 1000 g/ha, evaluated after 13 days, 5=total damage to plant, 0=no damage to plant. In short, it runs like this: (§2)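 Visual injury rating (0–5 scale, 5 = total damage) 13 days after post-emergence foliar spray of 8-day-old glasshouse-grown plants; formulation acetone/water 50:50 with 0.5% Tween 20.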

In assay [8] the test system is Avena fatua (AVEFA). Nature of the assay: Post-emergence herbicidal activity (B2). As to conditions: Test B2a, 1000 g/ha, evaluated after 13 days, 5=total damage to plant, 0=no damage to plant. A digest of the protocol: as §2
Assay [9] has as its system Echinochloa crus-galli (ECHCG). In words: Post-emergence herbicidal activity (B2). As to conditions: Test B2a, 1000 g/ha, evaluated after 13 days, 5=total damage to plant, 0=no damage to plant. In short, it runs like this: as §2
Assay [10] deals with Lolium perenne (LOLPE). Nature of the assay: Post-emergence herbicidal activity (B2). As to conditions: Test B2a, 1000 g/ha, evaluated after 13 days, 5=total damage to plant, 0=no damage to plant. In short, it runs like this: as §2
The subject of assay [11] is Setaria faberi (SETFA). Nature of the assay: Post-emergence herbicidal activity (B2). As to conditions: Test B2a, 1000 g/ha, evaluated after 13 days, 5=total damage to plant, 0=no damage to plant. A digest of the protocol:
as §2

Assay [12] concerns Triticum aestivium (TRZAW). In words: Post-emergence herbicidal activity (B2). As to conditions: Test B2a, 1000 g/ha, evaluated after 13 days, 5=total damage to plant, 0=no damage to plant. In short, it runs like this:
as §2

Take `CCCNc1ccc(-c2cncc(F)c2)nc1C(F)(F)F` [Compound A47]: the ALOMY damage score in assay [1] and in [7] was 0 each time. Besides, the results for the AVEFA damage score with Avena fatua (AVEFA) [2] and in the assay with Avena fatua (AVEFA) [8] were 1 and 2, respectively. Also, the ECHCG damage score in assay [3] was determined as 3; in assay [9], 4. The LOLPE damage score in the assay on Lolium perenne (LOLPE) [4] worked out at 1; with Lolium perenne (LOLPE) [10], 2. Moreover, the SETFA damage score is given as 4 with Setaria faberi (SETFA) [5] and 5 in the assay with Setaria faberi (SETFA) [11]. Also, the TRAZW damage score was 0 in [6] and 2 in assay [12].
For the molecule `CN(C)c1ccc(-c2cncc(F)c2)nc1C(F)(F)F` [Compound A38, 6-(5-fluoro-3-pyridyl)-N,N-dimethyl-2-(trifluoromethyl)pyridin-3-amine], the ALOMY damage score in [1] is on record as 0; in assay [7] it was 1. The AVEFA damage score in the assay with Avena fatua (AVEFA) [2] was determined as 2; in the assay on Avena fatua (AVEFA) [8], 4. Moreover, the ECHCG damage score in assay [3] and in [9] was 5 each time. The LOLPE damage score worked out at 0 in the assay with Lolium perenne (LOLPE) [4] and 2 with Lolium perenne (LOLPE) [10]. Further, the SETFA damage score in the assay with Setaria faberi (SETFA) [5] and with Setaria faberi (SETFA) [11] was 5 in each case. The TRAZW damage score stood at 0 in assay [6] and 1 in [12].
Turning to `Fc1cncc(-c2ccc(N3CCOCC3)c(C(F)(F)F)n2)c1` [Compound A39, 4-[6-(5-fluoro-3-pyridyl)-2-(trifluoromethyl)-3-pyridyl]morpholine], the ALOMY damage score in [1] and in [7] was 0 each time. In addition, the AVEFA damage score with Avena fatua (AVEFA) [2] was 0; in the assay with Avena fatua (AVEFA) [8], 2. The ECHCG damage score in [3] worked out at 3; in assay [9], 4. The LOLPE damage score is on record as 0 in the assay with Lolium perenne (LOLPE) [4] and 2 with Lolium perenne (LOLPE) [10]. Moreover, the SETFA damage score with Setaria faberi (SETFA) [5] was 3; in the assay with Setaria faberi (SETFA) [11], 4. In addition, the TRAZW damage score in assay [6] and in [12] was 0 throughout.
On to `COc1nc(-c2cncc(F)c2)ccc1N` [Compound A43], for which the ALOMY damage score in assay [1] and in assay [7] was 0 each time. In addition, the values for the AVEFA damage score with Avena fatua (AVEFA) [2] and with Avena fatua (AVEFA) [8] were 0 and 1, respectively. For the same molecule, the ECHCG damage score in assay [3] was determined as 0; in assay [9], 1. The LOLPE damage score in the assay on Lolium perenne (LOLPE) [4] and in the assay on Lolium perenne (LOLPE) [10] was 1 each time. The SETFA damage score is listed as 1 in the assay on Setaria faberi (SETFA) [5] and 2 in the assay on Setaria faberi (SETFA) [11]. For the same molecule, the TRAZW damage score in assay [6] and in assay [12] was 0 in each case.
Take `Cc1nc(-c2cncc(OC(F)F)c2)ccc1N` [Compound A4]: the ALOMY damage score in assay [1] is recorded as 0; in assay [7], 1. Also, the AVEFA damage score was found to be 0 with Avena fatua (AVEFA) [2] and 3 with Avena fatua (AVEFA) [8]. The ECHCG damage score in [3] is reported as 1; in assay [9], 2. Also, the LOLPE damage score in the assay on Lolium perenne (LOLPE) [4] and in the assay with Lolium perenne (LOLPE) [10] was 1 each time. Besides, the figures for the SETFA damage score with Setaria faberi (SETFA) [5] and with Setaria faberi (SETFA) [11] were 2 and 4, respectively. In addition, the TRAZW damage score in assay [6] turned out to be 0; in assay [12], 1.
For `CC(C)CCNc1ccc(-c2cncc(F)c2)nc1C(F)(F)F` [Compound A53], the ALOMY damage score in [1] and in assay [7] was 1 throughout. Further, the AVEFA damage score is given as 1 in the assay with Avena fatua (AVEFA) [2] and 3 with Avena fatua (AVEFA) [8]. The ECHCG damage score in assay [3] is 4; in assay [9] it was 5. Besides, the LOLPE damage score is 2 in the assay with Lolium perenne (LOLPE) [4] and 3 with Lolium perenne (LOLPE) [10]. Besides, the SETFA damage score with Setaria faberi (SETFA) [5] and with Setaria faberi (SETFA) [11] was 5 each time. Besides, the TRAZW damage score in [6] and in assay [12] was 1 in each case.
Regarding `Fc1cncc(-c2ccc(NCc3cc4ccccn4n3)c(C(F)(F)F)n2)c1` [Compound A55], the figures for the ALOMY damage score in assay [1] and in assay [7] were 0 and 1, respectively. For the same molecule, the AVEFA damage score in the assay on Avena fatua (AVEFA) [2] came to 2; with Avena fatua (AVEFA) [8], 4. The ECHCG damage score in assay [3] and in assay [9] was 5 in each case. Further, the LOLPE damage score in the assay with Lolium perenne (LOLPE) [4] is 1; with Lolium perenne (LOLPE) [10] it was 3. Moreover, the SETFA damage score with Setaria faberi (SETFA) [5] and in the assay with Setaria faberi (SETFA) [11] was 5 throughout. Further, the TRAZW damage score in assay [6] is 0; in [12], 2.
In the case of `CCCN(CCC)c1ccc(-c2cncc(F)c2)nc1C(F)(F)F` [Compound A48], the ALOMY damage score in assay [1] and in [7] was 0 throughout. Also, the AVEFA damage score worked out at 0 in the assay on Avena fatua (AVEFA) [2] and 3 in the assay on Avena fatua (AVEFA) [8]. Further, the ECHCG damage score in [3] and in [9] was 4 in each case. In addition, the LOLPE damage score is on record as 0 in the assay with Lolium perenne (LOLPE) [4] and 2 with Lolium perenne (LOLPE) [10]. Besides, the SETFA damage score in the assay with Setaria faberi (SETFA) [5] is listed as 4; in the assay with Setaria faberi (SETFA) [11], 5. In addition, the TRAZW damage score in assay [6] is listed as 0; in [12], 1.
For `Fc1cncc(-c2ccc(N3CC(F)(F)C(F)(F)C3)c(C(F)(F)F)n2)c1` [Compound A62], the ALOMY damage score in [1] and in assay [7] was 0 in each case. In addition, the AVEFA damage score in the assay on Avena fatua (AVEFA) [2] was 1; in the assay on Avena fatua (AVEFA) [8] it was 3. The ECHCG damage score in assay [3] and in [9] was 3 each time. Besides, the LOLPE damage score is on record as 0 in the assay with Lolium perenne (LOLPE) [4] and 2 in the assay on Lolium perenne (LOLPE) [10]. Further, the SETFA damage score in the assay with Setaria faberi (SETFA) [5] and in the assay on Setaria faberi (SETFA) [11] was 5 each time. The TRAZW damage score in assay [6] and in assay [12] was 0 throughout.
With `CCCCCNc1ccc(-c2cncc(F)c2)nc1C(F)(F)F` [Compound A54], the ALOMY damage score in [1] and in [7] was 0 each time. Also, the AVEFA damage score was found to be 1 with Avena fatua (AVEFA) [2] and 3 in the assay with Avena fatua (AVEFA) [8]. Besides, the ECHCG damage score in [3] and in assay [9] was 3 in each case. Further, the figures for the LOLPE damage score in the assay on Lolium perenne (LOLPE) [4] and with Lolium perenne (LOLPE) [10] were 1 and 2, respectively. Besides, the SETFA damage score in the assay with Setaria faberi (SETFA) [5] and with Setaria faberi (SETFA) [11] was 5 in each case. Also, the TRAZW damage score in assay [6] and in [12] was 0 each time.
Regarding `Nc1ccc(-c2cncc(F)c2)nc1-c1ccccc1` [Compound A50], the ALOMY damage score in assay [1] and in assay [7] was 0 throughout. The AVEFA damage score with Avena fatua (AVEFA) [2] and in the assay with Avena fatua (AVEFA) [8] was 0 each time. For the same molecule, the ECHCG damage score in assay [3] and in [9] was 1 in each case. The LOLPE damage score in the assay on Lolium perenne (LOLPE) [4] and in the assay on Lolium perenne (LOLPE) [10] was 0 throughout. The values for the SETFA damage score in the assay with Setaria faberi (SETFA) [5] and in the assay on Setaria faberi (SETFA) [11] were 1 and 2, respectively. In addition, the TRAZW damage score in assay [6] and in assay [12] was 0 in each case.
As for `Fc1cncc(-c2ccc(NCC3CCCCC3)c(C(F)(F)F)n2)c1` [Compound A52], the ALOMY damage score in [1] and in assay [7] was 0 in each case. Moreover, the figures for the AVEFA damage score in the assay with Avena fatua (AVEFA) [2] and with Avena fatua (AVEFA) [8] were 1 and 3, respectively. Besides, the ECHCG damage score in assay [3] and in assay [9] was 3 each time. The LOLPE damage score is on record as 1 with Lolium perenne (LOLPE) [4] and 3 in the assay with Lolium perenne (LOLPE) [10]. The SETFA damage score with Setaria faberi (SETFA) [5] and in the assay on Setaria faberi (SETFA) [11] was 5 in each case. Besides, the TRAZW damage score in [6] and in [12] was 0 throughout.
On to `Fc1cncc(-c2ccc(N3CCC3)c(C(F)(F)F)n2)c1` [Compound A63], for which the ALOMY damage score in assay [1] and in assay [7] was 0 in each case. Moreover, the results for the AVEFA damage score with Avena fatua (AVEFA) [2] and in the assay with Avena fatua (AVEFA) [8] were 0 and 3, respectively. The ECHCG damage score was 2 in [3] and 3 in assay [9]. In addition, the LOLPE damage score in the assay on Lolium perenne (LOLPE) [4] was determined as 0; in the assay with Lolium perenne (LOLPE) [10], 2. In addition, the SETFA damage score in the assay with Setaria faberi (SETFA) [5] and with Setaria faberi (SETFA) [11] was 5 throughout. In addition, the TRAZW damage score in [6] and in assay [12] was 0 in each case.
Consider `Fc1cncc(-c2ccc(NCCc3ccccc3)c(C(F)(F)F)n2)c1` [Compound A49], for which the ALOMY damage score in assay [1] and in assay [7] was 0 throughout. Also, the AVEFA damage score in the assay on Avena fatua (AVEFA) [2] stood at 1; in the assay on Avena fatua (AVEFA) [8] it was 3. Further, the ECHCG damage score in assay [3] and in assay [9] was 3 throughout. Further, the results for the LOLPE damage score in the assay on Lolium perenne (LOLPE) [4] and with Lolium perenne (LOLPE) [10] were 1 and 3, respectively. In addition, the SETFA damage score in the assay on Setaria faberi (SETFA) [5] and in the assay with Setaria faberi (SETFA) [11] was 5 throughout. Further, the TRAZW damage score in assay [6] and in assay [12] was 0 throughout.
